From US6516294B1, “Nuclear receptor for 1α,25-dihydroxyvitamin D3 useful for selection of vitamin D3 ligands and a method therefor” (The Regents of the University of California, priority 1999, dated 2003)

What was measured:
VDR = molecular target: T1, VDR (Homo sapiens, UniProt P11473); experiment: Binding to the VDR relative to 1α,25(OH)2D3; conditions: 1α,25(OH)2D3 as reference
T1 sequence (P11473 1-427): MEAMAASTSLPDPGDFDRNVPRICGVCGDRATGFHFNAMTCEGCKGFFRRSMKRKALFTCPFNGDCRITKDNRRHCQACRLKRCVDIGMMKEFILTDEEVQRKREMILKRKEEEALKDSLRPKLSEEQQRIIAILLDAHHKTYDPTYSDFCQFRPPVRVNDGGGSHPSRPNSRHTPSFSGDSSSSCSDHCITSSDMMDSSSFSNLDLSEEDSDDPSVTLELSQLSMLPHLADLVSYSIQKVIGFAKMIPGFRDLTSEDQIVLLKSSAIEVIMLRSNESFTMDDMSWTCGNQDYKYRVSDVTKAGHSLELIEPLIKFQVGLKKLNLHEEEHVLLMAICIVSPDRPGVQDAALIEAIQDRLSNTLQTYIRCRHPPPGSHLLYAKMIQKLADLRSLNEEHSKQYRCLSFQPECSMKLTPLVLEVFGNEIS
From the text: (§1) One striking ligand-receptor structure-function relationship for 1α,25(OH)2D3 analogs relates to the chiral center at carbon 20 (see FIG. 7A) of the steroid side chain. The 20-epi analogs are 100-10,000 times more transcriptionally potent than the natural hormone 1α,25(OH)2D3, even though their affinity for the VDR is not greater. It is also known that the side chain of 20-normal versus 20-epi analogs of 1α,25(OH)2D3 is able to access different regions of three-dimensional space around the C/D ring. […] Med. Chem. Lett., 3:1799 (1998).
(§2) The problem of docking in the VDR LBD a unique analog of 1α,25(OH)2D3 that has a second side chain attached to carbon 20, such as Gemini [21-(3′-hydroxy-3-methylbutyl)-1α,25(OH)2D3], was also evaluated. Thus, Gemini has both a 20-normal and a 20-epi side chain. […] This conclusion is also consistent both with the proposal that the ligand enters the VDR LBD leading with its A-ring and with the unique trypsin sensitivity of a VDR LBD-Gemini complex.

osteocalcin promoter = experiment: Transactivation of the osteocalcin promoter; type: cell-based; conditions: more potent than 1α,25(OH)2D3
From the text: as §1
The seemingly benign structural change of the ligand from a 20-normal to 20-epi 1α,25(OH)2D3 results in a new conformational change in the VDR as assessed by trypsin sensitivity. This conformational change is believed to reflect an altered orientation of helix 12. Thus a VDR with a 20-epi ligand has an enhanced dimerization with RXR, resulting in increased transactivation of the osteocalcin promoter.
as §2

binding to the VDR relative to 1α,25(OH)2D3 (VDR): 40%
SMILES: C=C1/C(=C\C=C2/CCC[C@]3(C)[C@@H](C(CCCC(C)(C)O)CCCC(C)(C)O)CC[C@@H]23)C[C@H](O)C[C@H]1O [Gemini, 21-(3′-hydroxy-3-methylbutyl)-1α,25(OH)2D3]
potency relative to 1α,25(OH)2D3, transactivation of the osteocalcin promoter (osteocalcin promoter): 13 -fold
